Assay results as given in ChEMBL document CHEMBL1201862, “PubChem BioAssay data set” (2004).
Calls of active or inactive are those of the source.

Experiments:
[1] = NIH-3T3 fibroblast cytotoxicity, dose response, cytotoxicity control, cell-based, fluorescence, Alamar Blue, secondary assay (AID 2327); format: functional;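 also: NIH-3T3 mouse fibroblasts cultured with fluconazole at 8 µg/mL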
[2] = test system: Streptococcus sp. 'group A'; assay: growth inhibition of control SK(-) GAS strain, dose response, counter-screen for streptokinase expression inhibitor project, luminescence, kanamycin, BacTiterGlo, confirmation (AID 1900); format: functional, organism-based
[3] = test system: BJ; assay: cytotoxicity toward BJ-TERT fibroblasts, dose response, cell-based, RAS-independent, luminescence (AID 1933); format: functional; details: Homo sapiens
[4] = cells; format: functional, cell-based
[5] = test system: BJ; assay: cells; format: functional, cell-based; details: Homo sapiens
[6] = C. albicans growth with fluconazole, confirmation, fluorescence, retest (AID 2467); format: functional, cell-based
[7] = cells; format: functional, cell-based; remark: listed apart in the source
[8] = biological target: Serine/threonine-protein phosphatase (Candida dubliniensis (strain CD36 / CBS 7987 / NCPF 3949 / NRRLY-17841) (Yeast), UniProt B9W6M3); assay: calcineurin pathway inhibitors in yeast reporter, dose response, S. cerevisiae, CDRE-lacZ, luminescence, secondary (AID 2388); format: functional, cell-based;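 also: yeast reporter cells carrying a calcineurin-responsive lacZ construct stimulated with calcium chloride; luminescent beta-galactosidase reporter signal in whole cells rather than isolated phosphatase activity; potency for inhibition where a drop in reporter signal means calcineurin blockade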
Sequence of Serine/threonine-protein phosphatase (B9W6M3 whole entry): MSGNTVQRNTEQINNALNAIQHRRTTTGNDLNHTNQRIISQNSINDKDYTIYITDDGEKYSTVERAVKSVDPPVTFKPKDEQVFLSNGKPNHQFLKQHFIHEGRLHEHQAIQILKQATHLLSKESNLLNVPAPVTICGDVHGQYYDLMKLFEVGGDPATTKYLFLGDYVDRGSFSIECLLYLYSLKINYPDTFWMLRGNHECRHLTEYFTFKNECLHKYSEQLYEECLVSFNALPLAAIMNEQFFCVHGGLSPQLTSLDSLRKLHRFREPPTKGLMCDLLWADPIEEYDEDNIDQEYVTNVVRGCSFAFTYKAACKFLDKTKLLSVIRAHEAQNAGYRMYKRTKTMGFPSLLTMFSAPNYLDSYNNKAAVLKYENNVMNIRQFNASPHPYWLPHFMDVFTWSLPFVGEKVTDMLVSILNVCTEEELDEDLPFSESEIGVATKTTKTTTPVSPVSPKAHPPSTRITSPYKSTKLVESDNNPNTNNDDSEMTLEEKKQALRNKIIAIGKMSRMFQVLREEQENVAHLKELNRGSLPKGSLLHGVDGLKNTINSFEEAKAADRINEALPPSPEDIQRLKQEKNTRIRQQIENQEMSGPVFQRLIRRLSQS

[9] = test system: BJ; assay: cytotoxicity toward BJ-TERT-LT-ST fibroblasts, dose response, cell-based, RAS-independent, luminescence (AID 1935); format: functional; details: Homo sapiens;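 also: BJ fibroblasts immortalized with TERT plus LT and ST oncogenes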
[10] = cytotoxicity toward DRD oncogenic fibroblasts, dose response, cell-based, non-viral oncogenic, luminescence (AID 1934); format: functional; details: Homo sapiens
[11] = test system: Streptococcus; assay: Group A Streptococcus viability loss, dose response, counter-screen for streptokinase expression inhibitor project, luminescence, BacTiterGlo (AID 1915); format: functional, organism-based;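 also: potency for reduction of bacterial viability or growth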
[12] = biological target: Cytochrome P450 2C19 (Homo sapiens, UniProt P33261); assay: Cytochrome panel assay with activity outcomes. Panel member name: p450-cyp2c19 Compounds with AC50 equal or less than 10 uM are considered active; format: functional; details: read-out: AC50
Sequence of Cytochrome P450 2C19 (P33261 whole entry): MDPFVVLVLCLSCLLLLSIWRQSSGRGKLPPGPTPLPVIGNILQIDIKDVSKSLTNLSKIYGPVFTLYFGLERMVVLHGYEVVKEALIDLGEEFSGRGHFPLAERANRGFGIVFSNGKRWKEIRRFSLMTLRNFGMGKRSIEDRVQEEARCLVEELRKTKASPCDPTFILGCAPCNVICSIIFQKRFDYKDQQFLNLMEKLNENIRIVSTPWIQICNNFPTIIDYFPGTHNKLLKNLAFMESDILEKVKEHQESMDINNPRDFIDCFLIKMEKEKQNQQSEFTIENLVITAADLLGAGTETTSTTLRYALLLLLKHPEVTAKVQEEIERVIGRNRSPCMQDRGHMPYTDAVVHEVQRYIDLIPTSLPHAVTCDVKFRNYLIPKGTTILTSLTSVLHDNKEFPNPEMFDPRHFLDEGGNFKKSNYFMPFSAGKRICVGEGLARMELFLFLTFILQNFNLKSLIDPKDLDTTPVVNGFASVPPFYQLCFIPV

[13] = biological target: Heat shock protein HSP 90-alpha (Homo sapiens, UniProt P07900); format: functional, organism-based
[14] = test system: Vero; assay: cells; format: functional, cell-based; details: Chlorocebus sabaeus
[15] = test system: INS1; assay: beta cell apoptosis inhibitors, cytokine rescue, dose response, luminescence, retest (AID 449756); format: functional, cell-based; details: Rattus norvegicus;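 also: cell death triggered by IL-1 beta plus TNF-alpha plus IFN-gamma mixture; protective hits raise ATP signal compared with cytokine alone wells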
[16] = test system: Vero; assay: cells; format: functional; details: Chlorocebus sabaeus
[17] = biological target: ATP-dependent molecular chaperone HSP82 (Candida albicans (strain WO-1) (Yeast), UniProt C4YTQ8); assay: loss of DOC-induced GRE-beta-galactosidase reporter signal, dose response, Hsp90 inhibitor project, S. cerevisiae, luminescence (AID 2400); format: functional, cell-based;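 also: beta-galactosidase luminescence from glucocorticoid response element reporter as proxy for Hsp90 function; inhibitor potency where signal loss means Hsp90 inhibition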
Sequence of ATP-dependent molecular chaperone HSP82 (C4YTQ8 whole entry): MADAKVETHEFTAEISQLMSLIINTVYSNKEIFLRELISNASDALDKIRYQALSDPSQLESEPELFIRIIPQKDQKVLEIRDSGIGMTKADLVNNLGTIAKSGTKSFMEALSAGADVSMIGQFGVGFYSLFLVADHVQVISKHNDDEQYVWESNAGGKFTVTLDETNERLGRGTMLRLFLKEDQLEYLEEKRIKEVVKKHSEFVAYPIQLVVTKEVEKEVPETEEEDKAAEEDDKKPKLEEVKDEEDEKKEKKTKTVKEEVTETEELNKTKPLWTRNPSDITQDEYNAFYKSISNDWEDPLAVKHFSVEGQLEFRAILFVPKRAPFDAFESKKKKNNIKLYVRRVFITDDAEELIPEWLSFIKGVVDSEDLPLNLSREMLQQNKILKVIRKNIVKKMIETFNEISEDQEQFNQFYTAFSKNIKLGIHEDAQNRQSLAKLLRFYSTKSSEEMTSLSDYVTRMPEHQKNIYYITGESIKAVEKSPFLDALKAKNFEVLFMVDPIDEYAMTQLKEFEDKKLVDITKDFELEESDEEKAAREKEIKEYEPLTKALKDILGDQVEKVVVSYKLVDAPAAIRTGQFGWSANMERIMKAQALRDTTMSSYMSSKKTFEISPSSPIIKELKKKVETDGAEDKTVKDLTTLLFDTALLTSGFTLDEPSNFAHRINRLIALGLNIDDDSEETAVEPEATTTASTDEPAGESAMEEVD

[18] = Shn3 3'UTR reporter inhibitors, dose response, cell-based, Clone20 osteoblasts, firefly luciferase, cherry-picked (AID 624132); format: functional;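 also: firefly luciferase luminescence from reporter carrying the Shn3 3'UTR in osteoblasts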
[19] = control 3'UTR Renilla luciferase suppression, dose response, counter-screen for Shn3 inhibitor project, cell-based, Clone20-Shn3RL, cherry-picked (AID 624133); format: functional
[20] = biological target: Cytochrome P450 2D6 (Homo sapiens, UniProt P10635);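 also: CYP2D6 member of a cytochrome P450 panel assay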
Sequence of Cytochrome P450 2D6 (P10635 whole entry): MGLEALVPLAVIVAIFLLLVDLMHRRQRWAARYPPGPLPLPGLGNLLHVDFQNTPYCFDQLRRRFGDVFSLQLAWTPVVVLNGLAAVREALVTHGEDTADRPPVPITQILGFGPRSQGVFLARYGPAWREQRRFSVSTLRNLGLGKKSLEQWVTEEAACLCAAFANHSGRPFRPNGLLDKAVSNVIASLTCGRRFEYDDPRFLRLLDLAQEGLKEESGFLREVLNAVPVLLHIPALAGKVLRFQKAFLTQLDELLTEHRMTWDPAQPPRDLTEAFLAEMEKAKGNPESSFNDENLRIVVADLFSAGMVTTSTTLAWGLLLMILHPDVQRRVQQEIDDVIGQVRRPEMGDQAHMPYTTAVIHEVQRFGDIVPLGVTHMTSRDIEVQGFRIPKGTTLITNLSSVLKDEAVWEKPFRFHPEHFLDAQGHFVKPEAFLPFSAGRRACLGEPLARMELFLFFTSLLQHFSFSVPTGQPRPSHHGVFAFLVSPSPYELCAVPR

[21] = biological target: T1, Cytochrome P450 1A2 (Homo sapiens, UniProt P05177);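 also: PubChem cytochrome P450 panel assay, CYP1A2 panel member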
T1 sequence (P05177 whole entry): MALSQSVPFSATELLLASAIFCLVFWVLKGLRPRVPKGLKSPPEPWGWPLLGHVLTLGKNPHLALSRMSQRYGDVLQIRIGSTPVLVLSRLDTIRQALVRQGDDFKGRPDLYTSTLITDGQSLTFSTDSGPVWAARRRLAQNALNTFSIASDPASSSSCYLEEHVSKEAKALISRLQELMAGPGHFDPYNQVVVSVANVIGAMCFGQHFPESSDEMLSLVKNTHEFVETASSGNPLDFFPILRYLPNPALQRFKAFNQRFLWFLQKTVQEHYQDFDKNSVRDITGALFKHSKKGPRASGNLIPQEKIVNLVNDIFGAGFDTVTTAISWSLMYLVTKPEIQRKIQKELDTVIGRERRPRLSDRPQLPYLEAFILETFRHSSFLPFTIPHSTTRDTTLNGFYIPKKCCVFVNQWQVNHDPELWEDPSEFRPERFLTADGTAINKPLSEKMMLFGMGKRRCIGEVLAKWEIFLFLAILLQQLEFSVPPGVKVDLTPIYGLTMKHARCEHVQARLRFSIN

[22] = biological target: T2, Heat shock factor protein 1 (Mus musculus, UniProt P38532); assay: inhibition of MG132-induced HSE-luciferase signal, confirmation, cell-based, NIH3T3, luminescence, dose retest (AID 2382); format: functional;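 also: NIH3T3 fibroblasts with HSF1-driven luciferase reporter stressed by proteasome inhibitor MG132; luminescence from HSF1-driven luciferase expression after 8 hours of MG132 stress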
T2 sequence (P38532 whole entry): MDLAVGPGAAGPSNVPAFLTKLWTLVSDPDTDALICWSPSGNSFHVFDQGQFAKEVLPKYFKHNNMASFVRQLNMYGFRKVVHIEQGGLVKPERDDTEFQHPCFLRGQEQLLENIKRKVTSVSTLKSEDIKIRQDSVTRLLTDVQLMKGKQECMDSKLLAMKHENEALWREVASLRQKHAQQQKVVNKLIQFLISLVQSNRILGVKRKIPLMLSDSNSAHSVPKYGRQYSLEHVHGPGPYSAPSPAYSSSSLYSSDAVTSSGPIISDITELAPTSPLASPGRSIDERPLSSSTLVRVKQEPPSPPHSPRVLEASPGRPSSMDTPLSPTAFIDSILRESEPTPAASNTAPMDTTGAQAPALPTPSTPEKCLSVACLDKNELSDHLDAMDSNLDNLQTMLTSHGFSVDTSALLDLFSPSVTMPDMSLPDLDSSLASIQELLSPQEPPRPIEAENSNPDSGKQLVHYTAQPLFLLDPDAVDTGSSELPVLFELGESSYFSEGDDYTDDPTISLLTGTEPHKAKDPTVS

[23] = test system: Escherichia coli; assay: microbe, parasite or virus in culture
[24] = biological target: Hexokinase-1 (Homo sapiens, UniProt P19367); assay: SAR analysis of small molecule inhibitors of hexokinase domain containing I (HKDC1) in the hexokinase 1 selectivity assay. [Related pubchem assays (depositor defined):AID493160, AID493190]; format: functional
Sequence of Hexokinase-1 (P19367 whole entry, the tested form may be a part): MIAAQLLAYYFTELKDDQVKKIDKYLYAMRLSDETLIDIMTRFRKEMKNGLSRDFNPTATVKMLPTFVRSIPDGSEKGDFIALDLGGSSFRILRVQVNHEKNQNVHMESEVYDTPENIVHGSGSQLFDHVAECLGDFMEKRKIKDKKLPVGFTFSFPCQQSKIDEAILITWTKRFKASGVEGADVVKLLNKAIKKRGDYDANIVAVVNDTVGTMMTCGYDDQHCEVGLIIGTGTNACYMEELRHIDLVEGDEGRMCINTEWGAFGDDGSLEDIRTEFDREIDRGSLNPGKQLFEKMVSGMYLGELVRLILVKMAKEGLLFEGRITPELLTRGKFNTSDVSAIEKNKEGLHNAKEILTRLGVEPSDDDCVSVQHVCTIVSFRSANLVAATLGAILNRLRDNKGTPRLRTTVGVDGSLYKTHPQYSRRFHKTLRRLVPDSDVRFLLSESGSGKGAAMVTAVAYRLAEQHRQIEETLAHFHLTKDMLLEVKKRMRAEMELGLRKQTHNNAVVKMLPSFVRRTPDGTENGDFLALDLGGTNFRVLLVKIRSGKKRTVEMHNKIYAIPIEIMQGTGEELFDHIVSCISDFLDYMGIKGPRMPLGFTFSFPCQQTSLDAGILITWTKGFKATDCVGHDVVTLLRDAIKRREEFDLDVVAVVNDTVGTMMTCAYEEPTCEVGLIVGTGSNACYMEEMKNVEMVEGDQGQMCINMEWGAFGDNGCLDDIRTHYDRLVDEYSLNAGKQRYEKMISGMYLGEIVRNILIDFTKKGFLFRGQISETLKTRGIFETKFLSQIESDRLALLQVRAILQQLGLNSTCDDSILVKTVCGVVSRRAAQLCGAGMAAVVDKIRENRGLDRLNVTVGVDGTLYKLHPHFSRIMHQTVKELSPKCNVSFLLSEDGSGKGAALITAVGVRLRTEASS

[25] = biological target: T3, Hexokinase HKDC1 (Homo sapiens, UniProt Q2TB90); assay: SAR analysis of small molecule inhibitors of hexokinase domain containing I (HKDC1). [Related pubchem assays (depositor defined):AID493160, AID493190]; format: functional
T3 sequence (Q2TB90 whole entry): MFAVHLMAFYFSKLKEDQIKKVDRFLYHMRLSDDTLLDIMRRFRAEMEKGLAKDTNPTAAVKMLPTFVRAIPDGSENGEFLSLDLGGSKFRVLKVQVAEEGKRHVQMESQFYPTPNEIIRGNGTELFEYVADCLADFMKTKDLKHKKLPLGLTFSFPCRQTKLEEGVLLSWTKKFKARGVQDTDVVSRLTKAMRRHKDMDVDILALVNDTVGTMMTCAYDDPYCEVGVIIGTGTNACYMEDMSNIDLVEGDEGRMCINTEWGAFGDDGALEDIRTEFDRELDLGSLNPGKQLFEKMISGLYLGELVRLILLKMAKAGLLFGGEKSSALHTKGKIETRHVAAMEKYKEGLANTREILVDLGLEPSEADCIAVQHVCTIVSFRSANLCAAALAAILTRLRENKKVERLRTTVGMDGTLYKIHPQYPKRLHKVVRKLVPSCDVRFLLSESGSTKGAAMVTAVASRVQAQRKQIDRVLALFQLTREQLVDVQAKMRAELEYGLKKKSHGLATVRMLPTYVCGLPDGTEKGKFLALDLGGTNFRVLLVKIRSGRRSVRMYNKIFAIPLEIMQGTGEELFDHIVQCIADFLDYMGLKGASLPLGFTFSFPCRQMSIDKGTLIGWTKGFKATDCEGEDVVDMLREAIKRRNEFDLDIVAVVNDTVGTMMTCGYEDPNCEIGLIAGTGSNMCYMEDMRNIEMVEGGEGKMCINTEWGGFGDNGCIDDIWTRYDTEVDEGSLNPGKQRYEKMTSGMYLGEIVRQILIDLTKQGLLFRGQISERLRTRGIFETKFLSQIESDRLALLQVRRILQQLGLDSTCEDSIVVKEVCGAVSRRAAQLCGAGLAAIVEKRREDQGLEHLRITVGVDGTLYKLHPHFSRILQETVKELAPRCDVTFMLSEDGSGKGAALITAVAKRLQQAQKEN

Q: Which EC50 [1] does the source give for `Oc1c(CN2CCN(c3ccccc3)CC2)cc(Br)c2cccnc12` here?
A: > 160 µM (inconclusive)

Q: And the EC50 [2]?
A: 1.47 µM (active)

Q: What about the EC50 [3] of the same molecule?
A: 5.2 µM (active)

Q: And the EC50 [4]?
A: 62.6 µM (active)

Q: And the EC50 [5]?
A: 12.7 µM (inconclusive)

Q: And the EC50 [6]?
A: 0.656 µM (active)

Q: And the EC50 [7]?
A: > 350 µM (not active)

Q: And the EC50 [8]?
A: > 180 µM (inactive)

Q: What about the EC50 [9] of the same molecule?
A: 8.16 µM (inconclusive)

Q: And the EC50 [10]?
A: 14 µM (active)

Q: And the EC50 [11]?
A: 2.95 µM (active)

Q: And the AC50 [12]?
A: 3.98 µM (inconclusive)

Q: What about the AC50 [13] of the same molecule?
A: 4.59 µM (active)

Q: What about the IC50 [14] of the same molecule?
A: > 12.5 µM (active)

Q: What about the AC50 [15] of the same molecule?
A: 2.42 µM (active)

Q: And the CC50 [16]?
A: 3.51 µM (active)

Q: What about the EC50 [17] of the same molecule?
A: 21.3 µM (active)

Q: What about the AC50 [18] of the same molecule?
A: 1.92 µM (active)

Q: What about the AC50 [19] of the same molecule?
A: 1.84 µM (active)

Q: What about the AC50 [20] of the same molecule?
A: 3.98 µM (inconclusive)

Q: And the AC50 [21]?
A: 1.26 µM (inconclusive)

Q: Which EC50 [22] does the source give for `CCn1ccnc1CN(C)C(=O)c1cc(COc2ccc(Cl)cc2OC)on1` here?
A: > 195 µM (not active)

Q: What about the AC50 [23] of the same molecule?
A: 160 µM (active)

Q: Which results are given for `O=c1c2ccccc2nc(/C=C/c2ccncc2)n1-c1ccccc1`?
A: IC50 [24]: > 80 µM (inactive); IC50 [25]: > 80 µM (inactive)
